Converted amounts (≈) assume the structure as drawn. Read-outs that look alike come from different tables or passages of the source.
Key:
Type in all cases: cell-based
[1] = test system: P. aeruginosa ATCC 27853 (PA111); assay: Minimum inhibitory concentration assay, PA111
Protocol: (§1) Frozen bacterial strains were thawed and subcultured onto Mueller Hinton Broth (MHB) or other appropriate media (Streptococcus requires blood and Haemophilus requires hemin and NAD). Following incubation overnight, the strains were subcultured onto Mueller Hinton Agar and again incubated overnight. […] Isolated colonies were selected to prepare a starting inoculum equivalent to a 0.5 McFarland standard. The starting inoculum was diluted 1:125 using MHB for further use. Test compounds were prepared by dilution in sterile water to a final concentration of 5.128 mg/mL. Antibiotics (stored frozen, thawed and used within 3 hours of thawing) and compounds were further diluted to the desired working concentrations.
(§2) The assays were run as follows. Fifty μL of MHB was added to wells 2-12 of a 96-well plate. One hundred […] of appropriately diluted antibiotics was added to well 1. Fifty μL of antibiotics was removed from well 1 and added to well 2 and the contents of well 2 mixed by pipetting up and down five times. Fifty μL of the mixture in well 2 was removed and added to well 3 and mixed as above. Serial dilutions were continued in the same manner through well 12. Fifty μL was removed from well 12 so that all contained 50 μL. Fifty μL of the working inoculum was then added to all test wells. A growth control well was prepared by adding 50 μL of working inoculum and 50 μL of MHB to an empty well. The plates were then incubated at 37° C. overnight, removed from the incubator and each well was read on a plate reading mirror. The lowest concentration (MIC) of test compound that inhibited the growth of the bacteria was recorded.

[2] = test system: E. faecalis EF159 (tet resistant: tetM); assay: Minimum inhibitory concentration assay, EF159; conditions: Enterococcus faecalis, read-out: MICs EF159
Protocol: as §1, §2

[3] = test system: S. pneumoniae SP160 (tet resistant: tet M); assay: Minimum inhibitory concentration assay, SP160; conditions: Streptococcus pneumoniae, read-out: MICs SP160
Protocol: as §1, §2

[4] = test system: E. coli ATCC 25922 (EC107); assay: Minimum inhibitory concentration assay, EC107; conditions: Escherichia coli, ATCC25922; E. coli ATCC 25922, wt; read-out: MICs EC107
Protocol: as §1, §2

[5] = test system: A. baumanii ATCC 19606 (AB110); assay: Minimum inhibitory concentration assay, AB110
Protocol: as §1, §2

[6] = test system: S. aureus ATCC 29213 (SA101, MSSA); assay: Minimum inhibitory concentration assay, SA101; conditions: for MIC: Staphylococcus aureus, S. aureus ATCC 29213, MSSA control, read-out: MICs SA101; for MIC SA101 29213: control compounds, numeric MIC, 0.016 means 0.016 or lower
Protocol: as §1, §2

[7] = test system: S. aureus ATCC 13709 (SA100, MSSA, Smith strain); assay: Minimum inhibitory concentration assay, SA100; conditions: Staphylococcus aureus; S. aureus ATCC 13709, MSSA Smith strain; read-out: MICs SA100
Protocol: as §1, §2

[8] = test system: K. pneumoniae KP153 (tet resistant: tetA efflux); assay: microbe, parasite or virus in culture; conditions: Klebsiella pneumoniae, read-out: MICs KP153
Protocol: as §1, §2

[9] = test system: S. aureus SA158 (tet resistant: tetK efflux); assay: microbe, parasite or virus in culture; conditions: Staphylococcus aureus, read-out: MICs SA158
Protocol: as §1, §2

[10] = test system: E. coli EC155 (tet resistant: tetA efflux); assay: microbe, parasite or virus in culture
Protocol: as §1, §2

[11] = test system: S. pneumoniae ATCC 49619 (SP106); assay: Minimum inhibitory concentration assay, SP106; conditions: Streptococcus pneumoniae, ATCC49619; S. pneumoniae ATCC 49619, wt; read-out: MICs SP106
Protocol: as §1, §2

[12] = test system: S. aureus SA161 (tet resistant: tet(M) ribosomal protection); assay: Minimum inhibitory concentration assay, SA161; conditions: Staphylococcus aureus, read-out: MICs SA161
Protocol: as §1, §2

[13] = test system: E. cloacae ATCC 13047 (EC108); assay: Minimum inhibitory concentration assay, EC108
Protocol: as §1, §2

[14] = test system: K. pneumoniae ATCC 13883 (KP109); assay: Minimum inhibitory concentration assay, KP109; conditions: Klebsiella pneumoniae, ATCC13883; K. pneumoniae ATCC 13883, wt; read-out: MICs KP109
Protocol: as §1, §2

[15] = test system: E. faecalis ATCC 29212 (EF103); assay: Minimum inhibitory concentration assay, EF103; conditions: Enterococcus faecalis, ATCC29212, read-out: MICs EF103
Protocol: as §1, §2

[16] = Pseudomonas aeruginosa, ATCC27853, P. aeruginosa ATCC 27853, wt, read-out: MICs PA111
[17] = Acinetobacter baumannii, ATCC19606, A. baumanii ATCC 19606, wt, read-out: MICs AB110
[18] = Escherichia coli, E. coli tet resistant: tetA (efflux), read-out: MICs EC155
[19] = Enterobacter cloacae, ATCC13047, E. cloacae ATCC 13047, wt, read-out: MICs EC108
[20] = PA111, control compounds, numeric
[21] = AB110, control compounds, numeric
[22] = EC108, control compounds, numeric
[23] = EC155 tetA, control compounds, numeric

| SMILES | MIC [1, 16] | MIC [2] | MIC [3] | MIC [4] | MIC [5, 17] | MIC [6] | MIC [7] | MIC [8] | MIC [9] | MIC [10, 18] | MIC [11] | MIC [12] | MIC [13, 19] | MIC [14] | MIC [15] | MIC [1, 20] | MIC [5, 21] | MIC SA101 29213 [6] | MIC [13, 22] | MIC [10, 23] |
| --- | --- | --- | --- | --- | --- | --- | --- | --- | --- | --- | --- | --- | --- | --- | --- | --- | --- | --- | --- | --- |
| CCCN(C)CC(=O)Nc1cc(F)c2c(c1O)C(=O)C1=C(O)[C@]3(O)C(=O)C(C(N)=O)=C(O)[C@@H](N(C)C)[C@@H]3C[C@@H]1C2 [Compound 28] | > 32 µg/mL | 1 µg/mL (≈ 1.78 µM) | 0.0625 µg/mL (≈ 0.111 µM) | 2 µg/mL (≈ 3.57 µM) | 0.5 µg/mL (≈ 0.892 µM) | 1 µg/mL (≈ 1.78 µM) | 2 µg/mL (≈ 3.57 µM) | 16 µg/mL (≈ 28.5 µM) | 1 µg/mL (≈ 1.78 µM) | 16 µg/mL (≈ 28.5 µM) | 0.125 µg/mL (≈ 0.223 µM) | 2 µg/mL (≈ 3.57 µM) | 8 µg/mL (≈ 14.3 µM) | 4 µg/mL (≈ 7.14 µM) | 1 µg/mL (≈ 1.78 µM) | – | – | – | – | – |
| CCCCCCNCC(=O)Nc1cc(F)c2c(c1O)C(=O)C1=C(O)[C@]3(O)C(=O)C(C(N)=O)=C(O)[C@@H](N(C)C)[C@@H]3C[C@@H]1C2 [Compound 14] | 16 µg/mL (≈ 27.2 µM) | 0.25 µg/mL (≈ 0.425 µM) | 0.125 µg/mL (≈ 0.212 µM) | 0.5 µg/mL (≈ 0.849 µM) | 0.25 µg/mL (≈ 0.425 µM) | 0.5 µg/mL (≈ 0.849 µM) | 0.25 µg/mL (≈ 0.425 µM) | 2 µg/mL (≈ 3.4 µM) | 0.25 µg/mL (≈ 0.425 µM) | 4 µg/mL (≈ 6.8 µM) | 0.03 µg/mL (≈ 0.051 µM) | 0.5 µg/mL (≈ 0.849 µM) | 2 µg/mL (≈ 3.4 µM) | 1 µg/mL (≈ 1.7 µM) | 0.125 µg/mL (≈ 0.212 µM) | – | – | – | – | – |
| CN(C)c1ccc(O)c2c1C[C@H]1C[C@H]3[C@H](N(C)C)C(O)=C(C(N)=O)C(=O)[C@@]3(O)C(O)=C1C2=O [Minocycline] | – | – | – | – | – | – | – | – | – | – | – | – | – | – | – | 16 µg/mL (≈ 35 µM) | 0.06 µg/mL (≈ 0.131 µM) | 0.06 µg/mL (≈ 0.131 µM) | 2 µg/mL (≈ 4.37 µM) | – |
| CCN(CC)CC(=O)Nc1cc(F)c2c(c1O)C(=O)C1=C(O)[C@]3(O)C(=O)C(C(N)=O)=C(O)[C@@H](N(C)C)[C@@H]3C[C@@H]1C2 [Compound 25] | 32 µg/mL (≈ 57.1 µM) | 0.0625 µg/mL (≈ 0.111 µM) | ≤ 0.0156 µg/mL | 0.5 µg/mL (≈ 0.892 µM) | 0.125 µg/mL (≈ 0.223 µM) | 0.125 µg/mL (≈ 0.223 µM) | 0.125 µg/mL (≈ 0.223 µM) | 8 µg/mL (≈ 14.3 µM) | 0.0313 µg/mL (≈ 0.0558 µM) | 8 µg/mL (≈ 14.3 µM) | ≤ 0.0156 µg/mL | 0.125 µg/mL (≈ 0.223 µM) | 2 µg/mL (≈ 3.57 µM) | 2 µg/mL (≈ 3.57 µM) | ≤ 0.0156 µg/mL | – | – | – | – | – |
| CC(C)NCC(=O)Nc1cc(F)c2c(c1O)C(=O)C1=C(O)[C@]3(O)C(=O)C(C(N)=O)=C(O)[C@@H](N(C)C)[C@@H]3C[C@@H]1C2 [Compound 16] | 16 µg/mL (≈ 29.3 µM) | 0.0625 µg/mL (≈ 0.114 µM) | ≤ 0.0156 µg/mL | 0.5 µg/mL (≈ 0.915 µM) | 1 µg/mL (≈ 1.83 µM) | 0.125 µg/mL (≈ 0.229 µM) | 0.25 µg/mL (≈ 0.457 µM) | 4 µg/mL (≈ 7.32 µM) | 0.5 µg/mL (≈ 0.915 µM) | 8 µg/mL (≈ 14.6 µM) | ≤ 0.0156 µg/mL | 0.25 µg/mL (≈ 0.457 µM) | 1 µg/mL (≈ 1.83 µM) | 1 µg/mL (≈ 1.83 µM) | 0.0625 µg/mL (≈ 0.114 µM) | – | – | – | – | – |
| CN(C)c1cc(NC(=O)CNC(C)(C)C)c(O)c2c1C[C@H]1C[C@H]3[C@H](N(C)C)C(O)=C(C(N)=O)C(=O)[C@@]3(O)C(O)=C1C2=O [Tigecycline] | – | – | – | – | – | – | – | – | – | – | – | – | – | – | – | 8 µg/mL (≈ 13.7 µM) | 0.25 µg/mL (≈ 0.427 µM) | 0.06 µg/mL (≈ 0.102 µM) | 0.25 µg/mL (≈ 0.427 µM) | 0.5 µg/mL (≈ 0.854 µM) |
| CN(C)[C@@H]1C(O)=C(C(N)=O)C(=O)[C@@]2(O)C(O)=C3C(=O)c4c(O)cccc4C[C@H]3C[C@@H]12 [Sancycline] | – | – | – | – | – | – | – | – | – | – | – | – | – | – | – | > 32 µg/mL | 0.25 µg/mL (≈ 0.603 µM) | 0.5 µg/mL (≈ 1.21 µM) | 8 µg/mL (≈ 19.3 µM) | 32 µg/mL (≈ 77.2 µM) |

From patent publication US8796245B2 (TetraPhase Pharmaceuticals, Inc., priority 2008, dated 2014)
